According to US11219623B2, “Inflammasome inhibition for the treatment of Parkinson's disease, Alzheimer's disease and multiple sclerosis” (University of Kentucky Research Foundation, priority 2015, dated 2022):
≈ marks a conversion by molar mass, not a printed value. Entries after “also recorded” stand apart in the source; their conditions may differ.

How the values were obtained:
[1] = LogP, partition coefficient in 1-octanol; assay type: physicochemical; settings: 1-octanol partition
[2] = Solubility in water; assay type: physicochemical; settings: aqueous buffer; Water pH 7.2 at 37° C.
[3] = tested on: Caspase-1; test: iGLuc luminescence assay of ATP-induced Caspase-1 activation in J774 iGLuc cells; assay type: cell-based, mouse; settings: for Caspase-1 cleavage (luminescence): ATP 5 mM, drug 1 nM-100 μM, N=3; for reduction of inflammasome activation: ATP (5 mM), mouse J774 iGLuc cells, FIGS. 70-73
Description: Caspase-1 is the enzyme at the core of the inflammasome complex and is an important danger response signal and mediator of RPE cell death in AMD. […] Importantly, there was some difference between individual compounds in terms of the dose response curve, emphasizing the need to test each compound (with unique R group(s)) individually.
To obtain the data set forth in FIGS. 64-73, an iGLuc assay was conducted (modified from Bartok et al. iGLuc: a luciferase-based inflammasome and protease activity reporter. Nature Methods 2013; 10(2):147-54). Briefly, 100,000 iGLuc cells per well were plated in a 96 well plate overnight. The next morning, media is aspirated from the plate and replaced with 75 μL of serum free DMEM with drugs (NRTIs or modified NRTIs) for 30 min. After 30 minutes of drug exposure, 20 mM ATP (25 μL) is added for a final concentration of 5 mM. 50 μL of media from each well is collected and 50 μL of coelenterazine 4.4 μM is added to each sample, and luminescence is read immediately.

[4] = tested on: human LINE-1 retrotransposon; test: EGFP cell culture L1 retrotransposition assay in HeLa cells; assay type: cell-based; settings: 7 days after transfection, flow cytometry
Description: These findings pave way for the rational re-design and improvement of nucleoside analogs as novel therapeutics. The enhanced green fluorescent protein (EGFP) cell culture L1 retrotransposition assay was performed in HeLa cells. […] Transfected cells were selected in puromycin. 7 days after transfection, cells that underwent retrotransposition (EGFP-positive) were assayed by flow cytometry. Cells were gated based on background fluorescence of plasmid JM111, which has two point mutations in L1-ORF1 that abolish retrotransposition. Data are normalized with RPS set to 1.

[5] = tested on: wild-type mice; test: pAlu-induced RPE degeneration, mouse model of dry AMD; assay type: in vivo; settings: intraperitoneal 25 mg/kg twice daily
Description: Mouse studies were conducted to study treatment with NRTIs or derivatives.

[6] = tested on: wild-type mice; test: Laser-induced choroidal neovascularization (CNV; wet AMD) in wild-type mice; settings: intravitreous 0.14 nmol; day 7; N=16
[7] = tested on: Caspase-1; test: Alu RNA-induced Caspase-1 activation, western blot, primary human RPE cells; assay type: cell-based
Excerpt: The bottom row in FIG. 5 is a vinculin loading control.

[8] = tested on: Caspase-1; test: Iron (III) ammonium citrate-induced Caspase-1 activation, western blot, primary human RPE cells; assay type: cell-based; settings: Fe(III) ammonium citrate (100 μM)
Excerpt: Caspase-1 activation (p20 subunit) in primary human retinal pigment epithelium (RPE) cells in the presence of iron (III) ammonium citrate was studied.
Caspase-1 activation (p10 subunit) in primary human RPE cells in the presence of iron (III) ammonium citrate was studied.
Alu RNA is a toxic endogenous retroelement that accumulates in and causes death of the RPE in patients with dry AMD. […] FAC activates Caspase-1 via an Alu RNA intermediate, and induces NLRP3-dependent RPE degeneration (Gelfand et al. Cell Reports 2015). Fe(III) ammonium citrate (100 μM)-induced Caspase-1 activation in primary human RPE cells, monitored by western blotting, is reduced by TM-3TC (25 μM), d4T-ene (25 μM), 2Me-d4T (25 μM), Me-AZT (25-100 μM), and 2Me-AZT (25 μM). N=3-4.

[9] = tested on: GFP-expressing lentivirus; test: GFP-expressing lentivirus transduction/replication assay in HeLa cells; assay type: cell-based; settings: 10 μM; 72 hours; MOI 20
Description: All drugs were added at a concentration of 10 μM. Cells were imaged for GFP expression 72 hours after addition of lentivirus. GFP-positive cells per field of view were recorded. n=4-11, error bars S.E.M. Reverse transcription of lentivirus is essential for GFP expression; modified NRTIs should not block reverse transcriptase, whereas NRTIs are known to block reverse transcriptase.
The present disclosure further provides the results of additional experiments in FIG. 21-FIG. 23.

[10] = tested on: mtDNA; test: Relative quantity of mtDNA, quantitative PCR, primary human RPE cells; settings: 50 μM; four days; relative to DMSO
[11] = molecular target: T1, human P2X7 receptor (Homo sapiens, UniProt Q99572); settings: 64 μM drug; bzATP 100 μM; n=12
T1 sequence (Q99572 1-595): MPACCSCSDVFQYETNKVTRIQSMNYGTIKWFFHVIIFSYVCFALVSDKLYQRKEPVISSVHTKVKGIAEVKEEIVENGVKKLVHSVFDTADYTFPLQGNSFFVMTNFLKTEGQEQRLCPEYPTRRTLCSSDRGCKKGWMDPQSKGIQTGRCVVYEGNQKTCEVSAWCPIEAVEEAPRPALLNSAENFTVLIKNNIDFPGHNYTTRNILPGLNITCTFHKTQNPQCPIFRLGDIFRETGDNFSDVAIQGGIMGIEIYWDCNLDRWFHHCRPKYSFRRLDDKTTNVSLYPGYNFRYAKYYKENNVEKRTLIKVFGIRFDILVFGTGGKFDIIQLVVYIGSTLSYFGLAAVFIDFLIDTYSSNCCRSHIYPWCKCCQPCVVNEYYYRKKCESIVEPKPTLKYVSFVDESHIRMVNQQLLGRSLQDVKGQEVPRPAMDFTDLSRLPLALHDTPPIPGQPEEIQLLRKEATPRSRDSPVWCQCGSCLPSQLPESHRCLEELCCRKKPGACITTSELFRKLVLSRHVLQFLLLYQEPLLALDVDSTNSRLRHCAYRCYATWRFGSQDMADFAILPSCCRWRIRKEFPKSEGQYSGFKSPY

[12] = tested on: wild-type mice; test: Alu RNA-induced RPE degeneration, mouse model of dry AMD; settings: intraperitoneal 25 mg/kg, twice daily for 6 days
[13] = tested on: IL-18; test: LPS/ATP-induced IL-18 maturation, mouse bone marrow-derived macrophages; assay type: cell-based; settings: 100 uM; cell culture supernatants
[14] = tested on: IL-1 beta; test: MSU-induced IL-1 beta secretion from PMA-differentiated THP-1 monocytes, ELISA; assay type: cell-based, human; settings: 25-1000 uM
Excerpt: Human THP-1 monocytes were differentiated into macrophages with PMA.
To illustrate this, human THP-1 monocytes were differentiated into macrophages with PMA. Treatment with MSU increased IL-1 beta secretion compared to non-treated cells. […]

[15] = tested on: Caspase-1; test: LPS/ATP-induced Caspase-1 activation, mouse bone marrow-derived macrophages, western blot; settings: 100 uM; cell culture supernatants

SMILES | logP [1] | solubility [2] [µg/mL] | Caspase-1 cleavage (luminescence) [3] | L1 retrotransposition (EGFP-positive cells) [4] | pAlu-induced RPE degeneration [5] | other results
COC[C@H]1O[C@@H](n2cc(C)c(=O)n(C)c2=O)C[C@@H]1N=[N+]=[N-] [Kamuvudine 2Me-AZT, 1-[(2R,4S,5S)-4-azido-5-(methoxymethyl)oxolan-2-yl]-3,5-dimethyl-1,2,3,4-tetrahydropyrimidine-2,4-dione] | 0.45 | 940 (≈ 3.18 mM) | reduces Caspase-1 cleavage in a dose-dependent fashion | no effect on L1 activity | restored to healthy RPE morphology/intercellular junctions | Alu RNA induced Caspase-1 activation ([7]; 25 μM, N=3-4): reduced; iron-induced Caspase-1 activation ([8]; 25 μM): reduced; lentivirus replication (GFP-positive cells per field) [9]: do not block lentivirus replication; relative quantity of mtDNA (mtDNA depletion) [10]: do not exhibit mtDNA depletion
Clc1cccc(-c2nnnn2Cc2cccnc2)c1Cl [Kamuvudine A438079] |  |  |  |  |  | P2X7-mediated YO-PRO-1 dye uptake induced by bzATP [11]: inhibited
COCC1O[C@@H](n2cc(C)c(=O)[nH]c2=O)CC1N=[N+]=N (stereo partly drawn) [Me-AZT, 1-[(5R)-2-(methoxymethyl)-5-(5-methyl-2,4-dioxo-1,2,3,4-tetrahydropyrimidin-1-yl)oxolan-3-yl]triaza-1,2-dien-2-ium] |  |  |  | no effect on L1 activity | restored to healthy RPE morphology/intercellular junctions | iron-induced Caspase-1 activation ([8]; 25-100 μM): reduced; lentivirus replication (GFP-positive cells per field) [9]: do not block lentivirus replication; relative quantity of mtDNA (mtDNA depletion) [10]: do not exhibit mtDNA depletion
CCn1c(=O)c(C)cn([C@H]2C=C[C@@H](COC)O2)c1=O [O-Me N-Et d4T, 3-ethyl-1-[(2R,5S)-5-(methoxymethyl)-2,5-dihydrofuran-2-yl]-5-methyl-1,2,3,4-tetrahydropyrimidine-2,4-dione] | 0.99 | 1500 (≈ 5.63 mM) | reduces Caspase-1 cleavage in a dose-dependent fashion |  |  | reduction of inflammasome activation [3]: about 55%; Alu RNA induced Caspase-1 activation ([7]; 25 μM, N=3-4): reduced; Alu RNA-induced RPE degeneration [12]: protects against Alu RNA-induced RPE degeneration; choroidal neovascularization (CNV) volume [6]: reduced choroidal neovascularization (CNV) volume
Clc1ccc(C(c2ccc(Cl)cc2)n2cc[n+](CC(OCc3ccc(Cl)cc3Cl)c3ccc(Cl)cc3Cl)c2)cc1 (centres unmarked) [calmidazolium, reference compound] |  |  |  |  |  | Alu RNA-induced Caspase-1 activation/cleavage ([7]; concentration not given): not inhibited
Nc1ncnc2c1ncn2[C@@H]1O[C@H](CO)C[C@H]1O [cordycepin] |  |  |  |  |  | Alu RNA-induced Caspase-1 maturation ([7]; 50-100 uM, 24 hours after Alu administration): blocked; IL-18 maturation induced by LPS/ATP [13]: inhibit; IL-1beta secretion induced by MSU [14]: did not significantly affect IL-1beta secretion; Caspase-1 activation (active p20 band) induced by LPS/ATP [15]: inhibit Caspase-1 activation
C=C1C=C[C@H](n2cc(C)c(=O)[nH]c2=O)O1 [d4T-ene] |  |  |  |  |  | Alu RNA induced Caspase-1 activation ([7]; 25-100 μM (25 and 100 μM)): blocked Alu-induced Caspase-1 activation; also recorded: reduced; iron-induced Caspase-1 activation ([8]; 25 μM): blocked iron-induced Caspase-1 activation; also recorded: reduced

The next lines start with results.

logP [1] | solubility [2] [µg/mL] | SMILES | Caspase-1 cleavage (luminescence) [3] | L1 retrotransposition (EGFP-positive cells) [4] | pAlu-induced RPE degeneration [5] | other results
1.16 | 1600 (≈ 5.1 mM) | CCOC[C@H]1O[C@@H](n2ccc(N(CC)CC)nc2=O)CS1 (stereo in doubt) [Kamuvudine 3Et-3TC, 4-(diethylamino)-1-[2-(ethoxymethyl)-1,3-oxathiolan-5-yl]-1,2-dihydropyrimidin-2-one] | reduces Caspase-1 cleavage in a dose-dependent fashion | some residual interference with natural L1 activity | protects against RPE degeneration | choroidal neovascularization (CNV) volume [6]: reduced choroidal neovascularization (CNV) volume
1.17 | 10 (≈ 0.0309 mM) | CCOC[C@H]1O[C@@H](n2cc(C)c(=O)n(CC)c2=O)C[C@@H]1N=[N+]=[N-] [Kamuvudine 2Et-AZT, 1-[(2R,4S,5 S)-4-azido-5-(ethoxymethyl)oxolan-2-yl]-3-ethyl-5-methyl-1,2,3,4-tetrahydropyrimidine-2,4-dione] | reduces Caspase-1 cleavage in a dose-dependent fashion | no effect on L1 activity | protects against RPE degeneration | choroidal neovascularization (CNV) volume [6]: reduced choroidal neovascularization (CNV) volume
1.35 | 90 (≈ 0.321 mM) | CCOC[C@@H]1C=C[C@H](n2cc(C)c(=O)n(CC)c2=O)O1 [Kamuvudine 2Et-d4T, 1-[(2R,5 S)-5-(ethoxymethyl)-2,5-dihydrofuran-2-yl]-3-ethyl-5-methyl-1,2,3,4-tetrahydropyrimidine-2,4-dione] | reduces Caspase-1 cleavage in a dose-dependent fashion | no effect on L1 activity | protects against RPE degeneration | reduction of inflammasome activation [3]: about 45%; Alu RNA induced Caspase-1 activation ([7]; 25 μM, N=3-4): reduced
-1.1 | 64000 (≈ 279 mM) | Nc1ccn([C@@H]2CS[C@H](CO)O2)c(=O)n1 [reference compound] |  |  |  | 
